Experimental findings from patent US12441725B2, “ISO-citrate dehydrogenase (IDH) inhibitor” (ZHEJIANG METON PHARMACEUTICAL CO., LTD, priority 2019, dated 2025) are described below.

The target of one assay is T1, IDH1 R132H (Homo sapiens, UniProt O75874, R132H).
T1 construct: 6xHis
Put plainly: Biochemical assay for IDH inhibition (NADPH fluorescence), mutant IDH1 R132H. The following applies: 50 nM IDH1-R132H, 1 hour pre-incubation, in triplet. The procedure, abridged:
(§1)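 Mutant enzyme (25 nM R132C or 50 nM R132H) was preincubated 1 h at room temperature with compound in pH 7.5 Tris buffer containing 1.33 mM α-KG, and the reaction was then started with NADPH (80 μM solution). NADPH consumption was followed by fluorescence (Ex 340/Em 460 nm) for 15 min. IC50 was derived from background-corrected linear rates relative to vehicle, run in triplicate.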

In the next assay the target is T2, IDH1 R132C (Homo sapiens, UniProt O75874, R132C).
T2 construct: 6xHis
The assay can be described thus: Biochemical assay for IDH inhibition (NADPH fluorescence), mutant IDH1 R132C. The following applies: 25 nM IDH1-R132C, 1 hour pre-incubation, in triplet. The procedure, abridged:
as §1

In assay [1] the target is T3, IDH (endogenous IDH1 R132C) in HT1080 cell (Homo sapiens, UniProt O75874, R132C).
T3 construct: which harbor endogenous heterozygous IDH1 R132C and R132H mutation respectively and accumulate D-2-HG
Put plainly: Cell-based assay for IDH inhibition (decrease of D-2-HG) in HT1080 cells. The following applies: human fibrosarcoma cell line HT1080, 16 hours treatment, D-2-HG by LC-MS, in triplet. The procedure, abridged:
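HT1080 cells with endogenous IDH1 R132C, grown in DMEM/10% FBS, treated with compound at several concentrations for 16 h. Metabolites extracted in cold 40% methanol/40% acetonitrile and D-2-HG measured by HILIC LC-MS/MS, normalized to glutamate. IC50 from D-2-HG relative to DMSO controls; run in triplicate.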

T2 sequence (O75874 whole entry R132C): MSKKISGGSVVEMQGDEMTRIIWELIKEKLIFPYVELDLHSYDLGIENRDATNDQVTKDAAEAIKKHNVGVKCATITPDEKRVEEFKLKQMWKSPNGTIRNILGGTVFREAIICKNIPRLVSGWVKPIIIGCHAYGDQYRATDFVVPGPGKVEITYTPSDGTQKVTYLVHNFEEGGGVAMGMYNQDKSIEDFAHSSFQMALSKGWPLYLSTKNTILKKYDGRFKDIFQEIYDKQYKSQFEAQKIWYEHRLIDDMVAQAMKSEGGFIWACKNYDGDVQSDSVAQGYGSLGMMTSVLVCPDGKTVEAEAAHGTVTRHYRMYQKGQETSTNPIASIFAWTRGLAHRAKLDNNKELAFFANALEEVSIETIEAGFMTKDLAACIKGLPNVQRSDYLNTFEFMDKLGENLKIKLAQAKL
T1 sequence (O75874 whole entry R132H): as the sequence (O75874 whole entry R132C) above, with C132H counted along it
T3 sequence (O75874 2-414 R132C): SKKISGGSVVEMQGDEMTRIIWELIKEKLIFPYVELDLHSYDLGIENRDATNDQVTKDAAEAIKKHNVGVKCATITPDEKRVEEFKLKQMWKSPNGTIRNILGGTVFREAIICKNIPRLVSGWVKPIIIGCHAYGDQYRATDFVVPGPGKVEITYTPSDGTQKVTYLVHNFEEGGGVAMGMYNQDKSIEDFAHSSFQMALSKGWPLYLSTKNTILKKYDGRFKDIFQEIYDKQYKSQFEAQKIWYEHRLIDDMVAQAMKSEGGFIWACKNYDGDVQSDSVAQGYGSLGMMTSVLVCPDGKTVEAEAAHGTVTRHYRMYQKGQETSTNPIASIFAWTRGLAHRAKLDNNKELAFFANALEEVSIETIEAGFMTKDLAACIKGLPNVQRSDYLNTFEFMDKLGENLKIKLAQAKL

As to `CCN1Cc2c(ccnc2N[C@@H](C)c2cc(F)c(-c3cc(C(C)(C)F)ncn3)cc2F)C1=O` [Compound 130, (S)-4-((1-(2,5-difluoro-4-(6-(2-fluoropropan-2-yl)pyrimidin-4-yl)phenyl)ethyl)amino)-2-ethyl-2,3-dihydro-1H-pyrrolo[3,4-c]pyridin-1-one], the figures for the IC50 (on IDH1 R132H; at IDH1 R132C; in assay [1]) were below 100 nM, 100 to 500 nM and 100 to 500 nM, respectively.

Take `CCN1Cc2c(ccnc2N[C@@H](C)c2cc(F)c(-c3cc(C4(F)CC4)cc(C)n3)cc2F)C1=O` [Compound 131, (S)-4-((1-(2,5-difluoro-4-(4-(1-fluorocyclopropyl)-6-methylpyridin-2-yl)phenyl)ethyl)amino)-2-ethyl-2,3-dihydro-1H-pyrrolo[3,4-c]pyridin-1-one]: the IC50 (at IDH1 R132H; on IDH1 R132C; in assay [1]) was below 100 nM in each case.

As for `CCN1Cc2c(ccnc2N[C@@H](C)c2cc(F)c(-c3cc(C(C)(C)F)ncc3OC)cc2F)C1=O` [Compound 132, (S)-4-((1-(2,5-difluoro-4-(2-(2-fluoropropan-2-yl)-5-methoxypyridin-4-yl)phenyl)ethyl)amino)-2-ethyl-2,3-dihydro-1H-pyrrolo[3,4-c]pyridin-1-one], the IC50 – broadly, the concentration that gives 50% inhibition – is below 100 nM at IDH1 R132H, below 100 nM on IDH1 R132C and 100 to 500 nM in assay [1].

Consider `CCN1Cc2c(ccnc2N[C@@H](C)c2cc(F)c(-c3cc(C(C)(C)F)c(F)c(C)n3)cc2F)C1=O` [Compound 133, (S)-4-((1-(2,5-difluoro-4-(5-fluoro-4-(2-fluoropropan-2-yl)-6-methylpyridin-2-yl)phenyl)ethyl)amino)-2-ethyl-2,3-dihydro-1H-pyrrolo[3,4-c]pyridin-1-one], for which the half-inhibitory concentration (IC50) (on IDH1 R132H; at IDH1 R132C; in assay [1]) was below 100 nM each time.

Take `CCN1Cc2c(ccnc2N[C@@H](C)c2cc(F)c(-c3nc(C)cc(C(C)(C)F)c3F)cc2F)C1=O` [Compound 134, (S)-4-((1-(2,5-difluoro-4-(3-fluoro-4-(2-fluoropropan-2-yl)-6-methylpyridin-2-yl)phenyl)ethyl)amino)-2-ethyl-2,3-dihydro-1H-pyrrolo[3,4-c]pyridin-1-one]: the IC50 (at IDH1 R132H; on IDH1 R132C; in assay [1]) was below 100 nM each time.

With `CCN1Cc2c(ccnc2N[C@@H](C)c2cc(F)c(-c3cc(C(C)(C)F)c(OC)cn3)cc2F)C1=O` [Compound 135, (S)-4-((1-(2,5-difluoro-4-(4-(2-fluoropropan-2-yl)-5-methoxypyridin-2-yl)phenyl)ethyl)amino)-2-ethyl-2,3-dihydro-1H-pyrrolo[3,4-c]pyridin-1-one], the IC50 (on IDH1 R132H; at IDH1 R132C; in assay [1]) was below 100 nM throughout.

On to `CCN1Cc2c(ccnc2N[C@@H](C)c2cc(F)c(-c3cc(C(C)(C)F)c(Cl)cn3)cc2F)C1=O` [Compound 136, (S)-4-((1-(4-(5-chloro-4-(2-fluoropropan-2-yl)pyridin-2-yl)-2,5-difluorophenyl)ethyl)amino)-2-ethyl-2,3-dihydro-1H-pyrrolo[3,4-c]pyridin-1-one], for which the IC50 (on IDH1 R132H; on IDH1 R132C; in assay [1]) was below 100 nM throughout.

In the case of `CCN1Cc2c(ccnc2N[C@@H](C)c2cc(F)c(-c3cc(C(C)(C)F)c(F)cn3)cc2F)C1=O` [Compound 137, (S)-4-((1-(2,5-difluoro-4-(5-fluoro-4-(2-fluoropropan-2-yl)pyridin-2-yl)phenyl)ethyl)amino)-2-ethyl-2,3-dihydro-1H-pyrrolo[3,4-c]pyridin-1-one], the IC50 (on IDH1 R132H; on IDH1 R132C; in assay [1]) was below 100 nM each time.

Regarding `CCN1Cc2c(ccnc2N[C@@H](C)c2cc(F)c(-c3cc(C(C)(C)C)ncc3O)cc2F)C1=O` [Compound 138, (S)-4-((1-(4-(2-(tert-butyl)-5-hydroxypyridin-4-yl)-2,5-difluorophenyl)ethyl)amino)-2-ethyl-2,3-dihydro-1H-pyrrolo[3,4-c]pyridin-1-one], the IC50 (on IDH1 R132H; on IDH1 R132C; in assay [1]) was below 100 nM each time.

As for `CCN1Cc2c(ccnc2N[C@@H](C)c2cc(F)c(-c3cc(C(C)(C)F)ncc3CF)cc2F)C1=O` [Compound 139, (S)-4-((1-(2,5-difluoro-4-(5-(fluoromethyl)-2-(2-fluoropropan-2-yl)pyridin-4-yl)phenyl)ethyl)amino)-2-ethyl-2,3-dihydro-1H-pyrrolo[3,4-c]pyridin-1-one], the IC50 on IDH1 R132H is below 100 nM; at IDH1 R132C it was 100 to 500 nM; in assay [1] it was below 100 nM.

For `CCN1Cc2c(ccnc2N[C@@H](C)c2cc(F)c(-c3cc(C(C)(C)F)nc(OC)n3)cc2F)C1=O` [Compound 141, (S)-4-((1-(2,5-difluoro-4-(6-(2-fluoropropan-2-yl)-2-methoxypyrimidin-4-yl)phenyl)ethyl)amino)-2-ethyl-2,3-dihydro-1H-pyrrolo[3,4-c]pyridin-1-one], the IC50 (at IDH1 R132H; on IDH1 R132C; in assay [1]) was below 100 nM throughout.

On to `CCN1Cc2c(ccnc2N[C@@H](C)c2cc(F)c(-c3cc(C(F)(F)F)cc(OC)n3)cc2F)C1=O` [Compound 142, (S)-4-((1-(2,5-difluoro-4-(6-methoxy-4-(trifluoromethyl)pyridin-2-yl)phenyl)ethyl)amino)-2-ethyl-2,3-dihydro-1H-pyrrolo[3,4-c]pyridin-1-one], for which the IC50 on IDH1 R132H is below 100 nM; on IDH1 R132C, 100 to 500 nM; in assay [1], 100 to 500 nM.

In the case of `CCN1Cc2c(ccnc2N[C@@H](C)c2cc(F)c(-c3cc(C(F)(F)F)ncc3OC)cc2F)C1=O` [Compound 143, (S)-4-((1-(2,5-difluoro-4-(5-methoxy-2-(trifluoromethyl)pyridin-4-yl)phenyl)ethyl)amino)-2-ethyl-2,3-dihydro-1H-pyrrolo[3,4-c]pyridin-1-one], the figures for the IC50 (at IDH1 R132H; at IDH1 R132C; in assay [1]) were below 100 nM, 100 to 500 nM and 100 to 500 nM, respectively.

For `CCN1Cc2c(ccnc2N[C@@H](C)c2cc(F)c(-c3cc(C(F)(F)F)ncc3O)cc2F)C1=O` [Compound 144, (S)-4-((1-(2,5-difluoro-4-(5-hydroxy-2-(trifluoromethyl)pyridin-4-yl)phenyl)ethyl)amino)-2-ethyl-2,3-dihydro-1H-pyrrolo[3,4-c]pyridin-1-one], the IC50 (on IDH1 R132H; at IDH1 R132C; in assay [1]) was above 1000 nM throughout.

For `CCN1Cc2c(ccnc2N[C@@H](C)c2cc(F)c(-c3cc(C(F)(F)F)ncc3OCOC)cc2F)C1=O` [Compound 145, (S)-4-((1-(2,5-difluoro-4-(5-(methoxymethoxy)-2-(trifluoromethyl)pyridin-4-yl)phenyl)ethyl)amino)-2-ethyl-2,3-dihydro-1H-pyrrolo[3,4-c]pyridin-1-one], the IC50 is below 100 nM on IDH1 R132H, below 100 nM on IDH1 R132C and 100 to 500 nM in assay [1].

For `CCN1Cc2c(ccnc2N[C@@H](C)c2cc(F)c(-c3cc4c(cn3)COC4(C)C)cc2F)C1=O` [Compound 146, (S)-4-((1-(4-(1,1-dimethyl-1,3-dihydrofuro[3,4-c]pyridin-6-yl)-2,5-difluorophenyl)ethyl)amino)-2-ethyl-2,3-dihydro-1H-pyrrolo[3,4-c]pyridin-1-one], the IC50 (at IDH1 R132H; on IDH1 R132C; in assay [1]) was below 100 nM in each case.

Regarding `CCN1Cc2c(ccnc2N[C@@H](C)c2cc(F)c(-c3cc(C(C)(C)F)c(COC)cn3)cc2F)C1=O` [Compound 147, (S)-4-((1-(2,5-difluoro-4-(4-(2-fluoropropan-2-yl)-5-(methoxymethyl)pyridin-2-yl)phenyl)ethyl)amino)-2-ethyl-2,3-dihydro-1H-pyrrolo[3,4-c]pyridin-1-one], the half-inhibitory concentration (IC50) (at IDH1 R132H; at IDH1 R132C; in assay [1]) was below 100 nM throughout.

As for `CCN1Cc2c(ccnc2N[C@@H](C)c2cc(F)c(-c3cc(C(C)(C)F)c(C(F)(F)F)cn3)cc2F)C1=O` [Compound 148, (S)-4-((1-(2,5-difluoro-4-(4-(2-fluoropropan-2-yl)-5-(trifluoromethyl)pyridin-2-yl)phenyl)ethyl)amino)-2-ethyl-2,3-dihydro-1H-pyrrolo[3,4-c]pyridin-1-one], the IC50 (on IDH1 R132H; on IDH1 R132C; in assay [1]) was below 100 nM each time.

For `CCN1Cc2c(ccnc2N[C@@H](C)c2cc(F)c(-c3ccc(OC)c(C(C)(C)C)n3)cc2F)C1=O` [Compound 149, (S)-4-((1-(4-(6-(tert-butyl)-5-methoxypyridin-2-yl)-2,5-difluorophenyl)ethyl)amino)-2-ethyl-2,3-dihydro-1H-pyrrolo[3,4-c]pyridin-1-one], the half-maximal inhibitory concentration (IC50) at IDH1 R132H was below 100 nM; at IDH1 R132C, 100 to 500 nM; in assay [1] it was 100 to 500 nM.

For `CCN1Cc2c(ccnc2N[C@@H](C)c2cc(F)c(-c3cc(C(C)(C)C)c(OC)cn3)cc2F)C1=O` [Compound 150, (S)-4-((1-(4-(4-(tert-butyl)-5-methoxypyridin-2-yl)-2,5-difluorophenyl)ethyl)amino)-2-ethyl-2,3-dihydro-1H-pyrrolo[3,4-c]pyridin-1-one], the IC50 (at IDH1 R132H; on IDH1 R132C; in assay [1]) was below 100 nM throughout.
